# Measurements reported in ChEMBL document CHEMBL1201862, “PubChem BioAssay data set” (2004).
#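 Exposure lasted 48 hours, with cells grown in 96-well plates and compounds tested at five concentrations. GI50: concentration for 50% inhibition of growth.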 Active and inactive are the calls of the source. No stated cut-off is given here; in the data, active = GI50 up to about 1.1 µM and inactive = higher.
# How the values were obtained:
# Assay in all cases: NCI anticancer screen, dose series, 48 h
# [1] = test system: IGROV-1
# [2] = test system: EKVX
# [3] = test system: HCT-116
# [4] = test system: SNB-75
# [5] = test system: SF-268
# [6] = test system: HOP-62
# [7] = test system: SK-MEL-5
# [8] = test system: HOP-92
# [9] = test system: LOX IMVI
# [10] = test system: MDA-MB-435
# [11] = test system: OVCAR-3
# [12] = test system: PC-3
# [13] = test system: NCI-H23
# [14] = test system: DU-145
# [15] = test system: SK-MEL-28
# [16] = test system: SNB-19
# [17] = test system: NCI/ADR-RES
# [18] = test system: MCF7
# [19] = test system: RXF 393
# [20] = test system: OVCAR-8
SMILES,GI50 [1],GI50 [2],GI50 [3],GI50 [4],GI50 [5],GI50 [6],GI50 [7],GI50 [8],GI50 [9],GI50 [10],GI50 [11],GI50 [12],GI50 [13],GI50 [14],GI50 [15],GI50 [16],GI50 [17],GI50 [18],GI50 [19],GI50 [20]
O=C1CCCCC/C1=C\c1ccc(Cl)cc1,67.6 µM (inactive),44.3 µM (inactive),35.4 µM (inactive),17 µM (inactive),14.5 µM (inactive),99.8 µM (inactive),13.9 µM (inactive),35.7 µM (inactive),28.9 µM (inactive),20.6 µM (inactive),47.8 µM (inactive),19.9 µM (inactive),31.6 µM (inactive),39.2 µM (inactive),49.3 µM (inactive),55.1 µM (inactive),–,–,–,–
CCC(C)C1NC(=O)C2CCCN2C(=O)C(CC2CO2)OC(=O)CCNC(=O)C(C)N(C)C(=O)C(C(C)C)N(C)C1=O (stereo not drawn),2.14 µM (inactive),35.4 µM (inactive),< 0.0279 µM (active),0.331 µM (active),–,0.112 µM (active),< 0.0169 µM (active),> 8.22 µM (inactive),< 0.0208 µM (active),0.111 µM (active),–,0.889 µM (active),–,–,> 100 µM (inactive),> 13.4 µM (inactive),> 47.8 µM (inactive),0.0267 µM (active),0.0713 µM (active),0.22 µM (active)
CCN(CC)Cc1cc(Nc2c3ccccc3nc3c2[nH]c2ccccc23)cc(CN(CC)CC)c1O,0.861 µM (active),1.45 µM (inactive),0.33 µM (active),1.22 µM (inactive),0.813 µM (active),0.598 µM (active),1.6 µM (inactive),1.14 µM (inactive),–,0.701 µM (active),–,0.64 µM (active),1.11 µM (active),1.32 µM (inactive),2.4 µM (inactive),1.21 µM (inactive),–,1.34 µM (inactive),0.28 µM (active),0.5 µM (active)
Cc1nn(C(=O)Cc2ccccc2)c2c1C(c1ccc(Cl)cc1)SC(=N)N2 (stereo not drawn),> 100 µM (inactive),> 100 µM (inactive),> 100 µM (inactive),17.2 µM (inactive),> 100 µM (inactive),> 100 µM (inactive),> 100 µM (inactive),–,> 100 µM (inactive),> 100 µM (inactive),–,> 100 µM (inactive),> 100 µM (inactive),> 100 µM (inactive),> 100 µM (inactive),–,–,> 100 µM (inactive),–,> 100 µM (inactive)
Cc1ccc(/N=N/c2c(O)c(C(=O)O)cc3ccccc23)cc1C,> 100 µM (inactive),> 100 µM (inactive),> 100 µM (inactive),> 100 µM (inactive),> 100 µM (inactive),62.5 µM (inactive),> 100 µM (inactive),> 100 µM (inactive),–,> 100 µM (inactive),> 100 µM (inactive),> 100 µM (inactive),> 100 µM (inactive),–,> 100 µM (inactive),46.1 µM (inactive),> 100 µM (inactive),> 100 µM (inactive),> 100 µM (inactive),> 100 µM (inactive)
O=C1Sc2sc(=S)sc2SC1c1ccccc1 (stereo not drawn),> 100 µM (inactive),> 100 µM (inactive),> 59 µM (inactive),> 50.2 µM (inactive),46.6 µM (inactive),> 100 µM (inactive),> 100 µM (inactive),36.6 µM (inactive),30.8 µM (inactive),–,29.8 µM (inactive),–,82.6 µM (inactive),–,> 45.6 µM (inactive),> 73.1 µM (inactive),40.5 µM (inactive),67.9 µM (inactive),28.4 µM (inactive),59 µM (inactive)
C#C[C@]1(O)CCC2C3CCc4cc(Oc5nc(F)nc(-c6c7cc8ccccc8cc7c7n6CCS7)n5)ccc4C3CCC21C (stereo partly drawn),50.7 µM (inactive),11.4 µM (inactive),33 µM (inactive),32.9 µM (inactive),56.9 µM (inactive),43.3 µM (inactive),25.4 µM (inactive),> 100 µM (inactive),43 µM (inactive),–,44.7 µM (inactive),–,54.1 µM (inactive),–,48.9 µM (inactive),> 100 µM (inactive),–,–,28.1 µM (inactive),53.8 µM (inactive)
Clc1ccc(C[P+](c2ccccc2)(c2ccccc2)c2ccccc2)c(Cl)c1,1.87 µM (inactive),3.44 µM (inactive),1.63 µM (inactive),2.77 µM (inactive),3.94 µM (inactive),2.79 µM (inactive),1.38 µM (inactive),1.71 µM (inactive),3.28 µM (inactive),–,2.58 µM (inactive),–,2.89 µM (inactive),–,5.98 µM (inactive),3.04 µM (inactive),–,–,2.7 µM (inactive),2.75 µM (inactive)
C[C@H]1C(=O)O[C@@H]1[C@H]1COC(C)(C)O1,–,> 100 µM (inactive),–,82 µM (inactive),> 100 µM (inactive),> 100 µM (inactive),–,> 100 µM (inactive),–,> 100 µM (inactive),> 100 µM (inactive),> 100 µM (inactive),> 100 µM (inactive),–,> 100 µM (inactive),> 100 µM (inactive),> 100 µM (inactive),> 100 µM (inactive),> 100 µM (inactive),> 100 µM (inactive)
CN(C)Cc1cc(/N=N/c2ccccc2)cc(CN(C)C)c1O,85.7 µM (inactive),> 100 µM (inactive),53.6 µM (inactive),> 100 µM (inactive),73.5 µM (inactive),> 100 µM (inactive),> 100 µM (inactive),63.1 µM (inactive),47.2 µM (inactive),> 100 µM (inactive),27.4 µM (inactive),> 100 µM (inactive),> 100 µM (inactive),92.5 µM (inactive),> 100 µM (inactive),> 100 µM (inactive),43 µM (inactive),–,44.7 µM (inactive),57.1 µM (inactive)
COc1cccc(NC(=O)CC(=O)N2N=C(N3c4ccccc4Sc4ccccc43)CC2c2ccccc2)c1 (stereo not drawn),> 100 µM (inactive),> 100 µM (inactive),> 100 µM (inactive),> 100 µM (inactive),> 100 µM (inactive),> 100 µM (inactive),> 100 µM (inactive),> 100 µM (inactive),> 100 µM (inactive),–,> 100 µM (inactive),–,> 100 µM (inactive),–,> 100 µM (inactive),> 100 µM (inactive),–,–,> 100 µM (inactive),> 100 µM (inactive)
CC(=O)[O-].[O-]c1c(Cl)cc(Cl)cc1/C=N/Nc1ccccn1.[Zn+2],1.96 µM (inactive),2.18 µM (inactive),0.338 µM (active),4.99 µM (inactive),0.94 µM (active),1.81 µM (inactive),0.593 µM (active),0.316 µM (active),0.798 µM (active),–,0.268 µM (active),–,0.32 µM (active),–,1.57 µM (inactive),3.86 µM (inactive),–,–,0.923 µM (active),0.237 µM (active)
NC(=O)/C(=N\NC(=O)c1cc2ccccc2cc1O)C1C(=O)N(c2ccccc2)N=C1N (stereo not drawn),21.1 µM (inactive),32.2 µM (inactive),27.2 µM (inactive),20.5 µM (inactive),17.2 µM (inactive),34 µM (inactive),18.4 µM (inactive),22.3 µM (inactive),> 100 µM (inactive),–,28 µM (inactive),–,20.3 µM (inactive),–,73.6 µM (inactive),65.3 µM (inactive),–,–,29.3 µM (inactive),26.3 µM (inactive)
C=CC1(C)CCC2C(=CCC3C(C)(COC4OC(C(=O)O)C(O)C(O)C4O)C(O)CCC23C)C1.C=CC1(C)CCC2C(=CCC3C2(C)CC(O)C(O)C3(C)COC2OC(C(=O)O)C(O)C(O)C2O)C1 (stereo not drawn),> 100 µM (inactive),> 100 µM (inactive),> 100 µM (inactive),> 100 µM (inactive),> 100 µM (inactive),> 100 µM (inactive),> 100 µM (inactive),> 100 µM (inactive),> 100 µM (inactive),> 100 µM (inactive),> 100 µM (inactive),80.4 µM (inactive),> 100 µM (inactive),> 100 µM (inactive),> 100 µM (inactive),> 100 µM (inactive),–,71 µM (inactive),> 100 µM (inactive),> 100 µM (inactive)
CC(=O)CSCc1ccccn1,37.8 µM (inactive),77.1 µM (inactive),45.3 µM (inactive),29.4 µM (inactive),8.87 µM (inactive),42.4 µM (inactive),26 µM (inactive),38.6 µM (inactive),41.5 µM (inactive),33.4 µM (inactive),30.3 µM (inactive),33.7 µM (inactive),62.2 µM (inactive),65.2 µM (inactive),40.2 µM (inactive),50.9 µM (inactive),> 100 µM (inactive),–,> 100 µM (inactive),38.4 µM (inactive)
CC(=O)OC1CCC2(C)C(CCC3C2CCC2(C)C(c4ccc(=O)oc4)C(OC(C)=O)CC32O)C1 (stereo not drawn),0.0173 µM (active),0.0168 µM (active),0.0157 µM (active),0.0183 µM (active),0.0144 µM (active),0.015 µM (active),0.0164 µM (active),0.0195 µM (active),0.0176 µM (active),–,0.0161 µM (active),–,0.0154 µM (active),–,0.0277 µM (active),0.0293 µM (active),0.0191 µM (active),0.0164 µM (active),0.0125 µM (active),0.0171 µM (active)
